Source: patent US20260262643A1, “HERBICIDAL BENZOXAZINES” (FMC CORPORATION, priority 2022, published 2026)

What was measured:
[1] = system: ryegrass, Italian; assay: Test C preemergence; format: in vivo, Lolium multiflorum; details: for Ryegrass, Italian plant response rating: 500 g ai/ha, preemergence, 0 to 100 scale (0 no effect, 100 complete control); for Plant response rating, Ryegrass, Italian: Preemergence, 125 g ai/ha, 0 to 100 scale, 0 no effect, 100 complete control
Summary of the method: (§1)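 Visual injury ratings on a 0–100 scale (100 = complete control) were made against untreated controls 10 days after treatment in the greenhouse. Compounds, formulated with surfactant in non-phytotoxic solvent, were sprayed on soil preemergence or onto one- to two-leaf plants 2–10 cm tall postemergence.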

[2] = system: pigweed, palmer; assay: Test C preemergence; format: in vivo, Amaranthus palmeri; details: for Pigweed, Palmer plant response rating: 500 g ai/ha, preemergence, 0 to 100 scale (0 no effect, 100 complete control); for Plant response rating, Pigweed, Palmer: Preemergence, 125 g ai/ha, 0 to 100 scale, 0 no effect, 100 complete control
Summary of the method: as §1

[3] = system: blackgrass; assay: Test C postemergence; format: in vivo, Alopecurus myosuroides; details: 10 days, 0 to 100 scale (0 no effect, 100 complete control)
Summary of the method: as §1

[4] = system: wheat; assay: Test C postemergence; format: in vivo, Triticum aestivum; details: Postemergence, 125 g ai/ha; 0 to 100 scale (0 no effect, 100 complete control), 10 days
Summary of the method: as §1

[5] = system: ducksalad; assay: Test D flooded paddy test; format: in vivo, Heteranthera limosa; details: 250 g ai/ha, applied to paddy water, visual rating after 13 to 14 days, scale 0 to 100 (0 no effect, 100 complete control)
Summary of the method: (§2)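 Plants at the 2-leaf stage were grown in pots flooded to 3 cm, and compound was applied directly into the paddy water, with depth kept throughout. After 13–14 days in a greenhouse, injury was rated visually against untreated controls on a 0–100 scale (100 = complete control); a dash means not tested.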

[6] = system: blackgrass; assay: Test C preemergence; format: in vivo, Alopecurus myosuroides; details: for Blackgrass plant response rating: 500 g ai/ha, preemergence, 0 to 100 scale (0 no effect, 100 complete control); for Plant response rating, Blackgrass: Preemergence, 125 g ai/ha, 0 to 100 scale, 0 no effect, 100 complete control
Summary of the method: as §1

[7] = system: pigweed, palmer; assay: Test C postemergence; format: in vivo, Amaranthus palmeri; details: 10 days, 0 to 100 scale (0 no effect, 100 complete control)
Summary of the method: as §1

[8] = system: oat, wild; assay: Test C preemergence; format: in vivo, Avena fatua; details: for Oat, Wild plant response rating: 500 g ai/ha, preemergence, 0 to 100 scale (0 no effect, 100 complete control); for Plant response rating, Oat, Wild: Preemergence, 125 g ai/ha, 0 to 100 scale, 0 no effect, 100 complete control
Summary of the method: as §1

[9] = system: oat, wild; assay: Test C postemergence; format: in vivo, Avena fatua; details: 10 days, 0 to 100 scale (0 no effect, 100 complete control)
Summary of the method: as §1

[10] = system: wheat; assay: Test C preemergence; format: in vivo, Triticum aestivum; details: for Wheat plant response rating: 500 g ai/ha, preemergence, 0 to 100 scale (0 no effect, 100 complete control); for Plant response rating, Wheat: Preemergence, 125 g ai/ha, 0 to 100 scale, 0 no effect, 100 complete control
Summary of the method: as §1

[11] = system: kochia; assay: Test C preemergence; format: in vivo, Bassia scoparia; details: for Kochia plant response rating: 500 g ai/ha, preemergence, 0 to 100 scale (0 no effect, 100 complete control); for Plant response rating, Kochia: Preemergence, 125 g ai/ha, 0 to 100 scale, 0 no effect, 100 complete control
Summary of the method: as §1

[12] = system: barnyardgrass; assay: Test C postemergence; format: in vivo, Echinochloa crusgalli; details: 10 days, 0 to 100 scale (0 no effect, 100 complete control)
Summary of the method: as §1

[13] = system: soybean; assay: Test C postemergence; format: in vivo, Glycine max; details: Postemergence, 125 g ai/ha; 0 to 100 scale (0 no effect, 100 complete control), 10 days
Summary of the method: as §1

[14] = system: corn; assay: Test C postemergence; format: in vivo, Zea mays; details: 10 days, 0 to 100 scale (0 no effect, 100 complete control)
Summary of the method: as §1

[15] = system: green foxtail; assay: Test C preemergence; format: in vivo, Setaria viridis; details: for Foxtail, Green plant response rating: 500 g ai/ha, preemergence, 0 to 100 scale (0 no effect, 100 complete control); for Plant response rating, Foxtail, Green: Preemergence, 125 g ai/ha, 0 to 100 scale, 0 no effect, 100 complete control
Summary of the method: as §1

[16] = system: rice; assay: Test D flooded paddy test; format: in vivo, Oryza sativa; details: 250 g ai/ha, applied to paddy water, visual rating after 13 to 14 days, scale 0 to 100 (0 no effect, 100 complete control)
Summary of the method: as §2

[17] = system: kochia; assay: Test C postemergence; format: in vivo, Bassia scoparia; details: 10 days, 0 to 100 scale (0 no effect, 100 complete control)
Summary of the method: as §1

[18] = system: sedge, umbrella; assay: Test D flooded paddy test; format: in vivo, Cyperus difformis; details: 250 g ai/ha, applied to paddy water, visual rating after 13 to 14 days, scale 0 to 100 (0 no effect, 100 complete control)
Summary of the method: as §2

[19] = system: green foxtail; assay: Test C postemergence; format: in vivo, Setaria viridis; details: 10 days, 0 to 100 scale (0 no effect, 100 complete control)
Summary of the method: as §1

[20] = system: ragweed; assay: Test C preemergence; format: in vivo, Ambrosia artemisiifolia; details: for Ragweed plant response rating: 500 g ai/ha, preemergence, 0 to 100 scale (0 no effect, 100 complete control); for Plant response rating, Ragweed: Preemergence, 125 g ai/ha, 0 to 100 scale, 0 no effect, 100 complete control
Summary of the method: as §1

[21] = system: horseweed; assay: Test C postemergence; format: in vivo, Erigeron canadensis; details: 10 days, 0 to 100 scale (0 no effect, 100 complete control)
Summary of the method: as §1

[22] = system: barnyardgrass; assay: Test C preemergence; format: in vivo, Echinochloa crusgalli; details: for Barnyardgrass plant response rating: 500 g ai/ha, preemergence, 0 to 100 scale (0 no effect, 100 complete control); for Plant response rating, Barnyardgrass: Preemergence, 125 g ai/ha, 0 to 100 scale, 0 no effect, 100 complete control
Summary of the method: as §1

[23] = system: soybean; assay: Test C preemergence; format: in vivo, Glycine max; details: for Soybean plant response rating: 500 g ai/ha, preemergence, 0 to 100 scale (0 no effect, 100 complete control); for Plant response rating, Soybean: Preemergence, 125 g ai/ha, 0 to 100 scale, 0 no effect, 100 complete control
Summary of the method: as §1

[24] = system: ryegrass, Italian; assay: Test C postemergence; format: in vivo, Lolium multiflorum; details: Postemergence, 125 g ai/ha; 0 to 100 scale (0 no effect, 100 complete control), 10 days
Summary of the method: as §1

[25] = system: barnyardgrass; assay: Test D flooded paddy test; format: in vivo, Echinochloa crus-galli; details: 250 g ai/ha, applied to paddy water, visual rating after 13 to 14 days, scale 0 to 100 (0 no effect, 100 complete control)
Summary of the method: as §2

[26] = system: ragweed; assay: Test C postemergence; format: in vivo, Ambrosia artemisiifolia; details: Postemergence, 125 g ai/ha; 0 to 100 scale (0 no effect, 100 complete control), 10 days
Summary of the method: as §1

[27] = system: galium; assay: Test C postemergence; format: in vivo, Galium aparine; details: 10 days, 0 to 100 scale (0 no effect, 100 complete control)
Summary of the method: as §1

[28] = system: corn; assay: Test C preemergence; format: in vivo, Zea mays; details: for Corn plant response rating: 500 g ai/ha, preemergence, 0 to 100 scale (0 no effect, 100 complete control); for Plant response rating, Corn: Preemergence, 125 g ai/ha, 0 to 100 scale, 0 no effect, 100 complete control
Summary of the method: as §1

CCOC[C@H]1CN(C(=O)c2cc(-n3cnc(CC)n3)ccc2C)c2cccc(Cl)c2O1 [Compound 412]
Ryegrass, Italian plant response rating [1]: 90 | Plant response rating, Ryegrass, Italian [1]: 80 | Pigweed, Palmer plant response rating [2]: 100 | Plant response rating, Pigweed, Palmer [2]: 100 | Plant response rating, Blackgrass ([3]; 500 g ai/ha, postemergence): 90 | Plant response rating, Blackgrass ([3]; Postemergence, 125 g ai/ha): 60 | Plant response rating, Wheat [4]: 20 | Plant response rating, Ducksalad (Flood) [5]: 75 | Blackgrass plant response rating [6]: 90 | Plant response rating, Blackgrass [6]: 50 | Plant response rating, Pigweed, Palmer ([7]; 500 g ai/ha, postemergence): 90 | Plant response rating, Pigweed, Palmer ([7]; Postemergence, 125 g ai/ha): 80 | Oat, Wild plant response rating [8]: 0 | Plant response rating, Oat, Wild [8]: 0 | Plant response rating, Oat, Wild ([9]; 500 g ai/ha, postemergence): 50 | Plant response rating, Oat, Wild ([9]; Postemergence, 125 g ai/ha): 20 | Wheat plant response rating [10]: 30 | Plant response rating, Wheat [10]: 30 | Kochia plant response rating [11]: 80 | Plant response rating, Kochia [11]: 30 | Plant response rating, Barnyardgrass ([12]; 500 g ai/ha, postemergence): 80 | Plant response rating, Barnyardgrass ([12]; Postemergence, 125 g ai/ha): 40 | Plant response rating, Soybean [13]: 100 | Plant response rating, Corn ([14]; 500 g ai/ha, postemergence): 20 | Plant response rating, Corn ([14]; Postemergence, 125 g ai/ha): 20 | Foxtail, Green plant response rating [15]: 100 | Plant response rating, Foxtail, Green [15]: 100 | Plant response rating, Rice (Flood) [16]: 10 | Plant response rating, Kochia ([17]; 500 g ai/ha, postemergence): 90 | Plant response rating, Kochia ([17]; Postemergence, 125 g ai/ha): 80 | Plant response rating, Sedge, Umbrella (Flood) [18]: 90 | Plant response rating, Foxtail, Green ([19]; 500 g ai/ha, postemergence): 90 | Plant response rating, Foxtail, Green ([19]; Postemergence, 125 g ai/ha): 80 | Ragweed plant response rating [20]: 100 | Plant response rating, Ragweed [20]: 50 | Plant response rating, Horseweed ([21]; 500 g ai/ha, postemergence): 30 | Plant response rating, Horseweed ([21]; Postemergence, 125 g ai/ha): 20 | Barnyardgrass plant response rating [22]: 80 | Plant response rating, Barnyardgrass [22]: 60 | Soybean plant response rating [23]: 90 | Plant response rating, Soybean [23]: 60 | Plant response rating, Ryegrass, Italian [24]: 70 | Plant response rating, Barnyardgrass (Flood) [25]: 25 | Plant response rating, Ragweed [26]: 90 | Plant response rating, Galium ([27]; 500 g ai/ha, postemergence): 100 | Plant response rating, Galium ([27]; Postemergence, 125 g ai/ha): 100 | Corn plant response rating [28]: 30 | Plant response rating, Corn [28]: 0

CCOC[C@H]1CN(C(=O)c2cc(-n3cnc(C(C)(C)C)n3)ccc2C)c2cccc(Cl)c2O1 [Compound 413]
Ryegrass, Italian plant response rating [1]: 100 | Plant response rating, Ryegrass, Italian [1]: 80 | Pigweed, Palmer plant response rating [2]: 100 | Plant response rating, Pigweed, Palmer [2]: 90 | Plant response rating, Blackgrass ([3]; 500 g ai/ha, postemergence): 20 | Plant response rating, Blackgrass ([3]; Postemergence, 125 g ai/ha): 20 | Plant response rating, Wheat [4]: 10 | Plant response rating, Ducksalad (Flood) [5]: 15 | Blackgrass plant response rating [6]: 60 | Plant response rating, Blackgrass [6]: 30 | Plant response rating, Pigweed, Palmer ([7]; 500 g ai/ha, postemergence): 100 | Plant response rating, Pigweed, Palmer ([7]; Postemergence, 125 g ai/ha): 100 | Oat, Wild plant response rating [8]: 0 | Plant response rating, Oat, Wild [8]: 0 | Plant response rating, Oat, Wild ([9]; 500 g ai/ha, postemergence): 10 | Plant response rating, Oat, Wild ([9]; Postemergence, 125 g ai/ha): 0 | Wheat plant response rating [10]: 0 | Plant response rating, Wheat [10]: 0 | Kochia plant response rating [11]: 80 | Plant response rating, Kochia [11]: 10 | Plant response rating, Barnyardgrass ([12]; 500 g ai/ha, postemergence): 40 | Plant response rating, Barnyardgrass ([12]; Postemergence, 125 g ai/ha): 20 | Plant response rating, Soybean [13]: 100 | Plant response rating, Corn ([14]; 500 g ai/ha, postemergence): 20 | Plant response rating, Corn ([14]; Postemergence, 125 g ai/ha): 10 | Foxtail, Green plant response rating [15]: 100 | Plant response rating, Foxtail, Green [15]: 80 | Plant response rating, Rice (Flood) [16]: 10 | Plant response rating, Kochia ([17]; 500 g ai/ha, postemergence): 90 | Plant response rating, Kochia ([17]; Postemergence, 125 g ai/ha): 90 | Plant response rating, Sedge, Umbrella (Flood) [18]: 45 | Plant response rating, Foxtail, Green ([19]; 500 g ai/ha, postemergence): 60 | Plant response rating, Foxtail, Green ([19]; Postemergence, 125 g ai/ha): 10 | Ragweed plant response rating [20]: 70 | Plant response rating, Ragweed [20]: 60 | Plant response rating, Horseweed ([21]; 500 g ai/ha, postemergence): 60 | Plant response rating, Horseweed ([21]; Postemergence, 125 g ai/ha): 10 | Barnyardgrass plant response rating [22]: 90 | Plant response rating, Barnyardgrass [22]: 50 | Soybean plant response rating [23]: 100 | Plant response rating, Soybean [23]: 70 | Plant response rating, Ryegrass, Italian [24]: 40 | Plant response rating, Barnyardgrass (Flood) [25]: 35 | Plant response rating, Ragweed [26]: 70 | Plant response rating, Galium ([27]; 500 g ai/ha, postemergence): 100 | Plant response rating, Galium ([27]; Postemergence, 125 g ai/ha): 90 | Corn plant response rating [28]: 10 | Plant response rating, Corn [28]: 0
